Results published in patent US20200181671A1, “Method for Increasing Content of Mogroside V in Siraitia Grosvenorii Suspended Cells” (Guilin Layn Natural Ingredients Corp, priority 2017, published 2020).
Blank lines part the entries; values can stand above or below the molecule they belong to.

Legend:
[1] = tested on: Siraitia grosvenorii suspended cells; assay: Content of mogroside II in Siraitia grosvenorii suspended cells at the peak of mogroside V, HPLC; format: cell-based; details: n = 5, x ± s
Experimental: (§1) Weighing 1.5 g Siraitia grosvenorii dry weight cells, adding 60% ethanol at a feed to liquid ratio of […], ultrasonically extracting for 40 min, extracting for 2 h at 90° C. in a slightly boiling state, repeating the extraction for 3 times, and combining the extracts to concentrate them to 5 mL in a rotary evaporator. The concentrate was filtered through a 0.22 μm filtration membrane, and then qualitative and quantitative analysis was performed using a high-performance liquid chromatograph.
Chromatographic conditions: The chromatographic column was a ZORBAX SBC C18 column, 4.6 mm×150 mm; the mobile phase was water-acetonitrile gradient elution (0-25 min, 13.5% to 35% acetonitrile), the flow rate was 0.8 mL/min; and the detection wavelength was 203 nm.

[2] = tested on: Siraitia grosvenorii suspended cells; assay: Content (yield) of mogroside V in Siraitia grosvenorii suspended cells under different treatment conditions, HPLC; format: cell-based
Experimental: as §1, with “feed-to-liquid” for “feed to liquid”
Chromatographic conditions: The chromatographic column was an inverted C18 column, 4.6 mm×250 mm; the mobile phase was water-acetonitrile at a ratio of 78:22, the flow rate was 1.0 mL/min; and the detection wavelength was 203 nm.

[3] = tested on: suspension culture cells of Maackia amurensis Rupr. et Maxim; details: 200 μmol/L, 9 days; cited from earlier work
[4] = tested on: Siraitia grosvenorii suspended cells; assay: Content (yield) of mogroside V in Siraitia grosvenorii suspended cells under different treatment conditions, HPLC; format: cell-based; details: suspended cells in the logarithmic growing period treated with methyl jasmonate alone
pueraria suspended cells = details: 1.0 mg/L; cited from earlier work
[5] = tested on: Taxus chinensis suspended cells; details: 100 μmol/L; cited from earlier work
[6] = tested on: Siraitia Grosvenorii Cell Culture System; details: 500 mg/L; cited from earlier work

SMILES: CC/C=C\CC1C(=O)CCC1CC(=O)OC (stereo not shown) [Comparative Example 4]
Content of mogroside II [1]: 32.8 ± 2.6 g/L
yield of mogroside V per unit time ([2]; 1 d of culture, n = 5, x ± s): 31.1 ± 0.8 g/L
yield of mogroside V per unit time ([2]; 3 d of culture, n = 5, x ± s): 32.6 ± 0.9 g/L
yield of mogroside V per unit time ([2]; 5 d of culture, n = 5, x ± s): 33.2 ± 1.1 g/L
yield of mogroside V per unit time ([2]; 7 d of culture, n = 5, x ± s): 33.5 ± 1.5 g/L
yield of mogroside V per unit time ([2]; 9 d of culture, n = 5, x ± s): 39.5 ± 2.0 g/L
yield of mogroside V per unit time ([2]; 11 d of culture, n = 5, x ± s): 46.5 ± 1.8 g/L
yield of mogroside V per unit time ([2]; 13 d of culture, n = 5, x ± s): 51.6 ± 1.8 g/L
yield of mogroside V per unit time ([2]; 15 d of culture, n = 5, x ± s): 53.6 ± 1.5 g/L
yield of mogroside V per unit time ([2]; 17 d of culture, n = 5, x ± s): 54.5 ± 1.6 g/L
yield of mogroside V per unit time ([2]; 19 d of culture, n = 5, x ± s): 55.7 ± 1.8 g/L
yield of mogroside V per unit time ([2]; 21 d of culture, n = 5, x ± s): 56.8 ± 2.0 g/L
yield of mogroside V per unit time ([2]; 23 d of culture, n = 5, x ± s): 58.2 ± 2.2 g/L
yield of mogroside V per unit time ([2]; 25 d of culture, n = 5, x ± s): 55.2 ± 2.4 g/L
yield of mogroside V per unit time ([2]; 27 d of culture, n = 5, x ± s): 51.4 ± 2.5 g/L
yield of mogroside V per unit time ([2]; 29 d of culture, n = 5, x ± s): 46.5 ± 2.4 g/L
yield of mogroside V per unit time ([2]; 31 d of culture, n = 5, x ± s): 41.2 ± 2.5 g/L
Peak yield (maximum yield) of mogroside V ([2]; maximum over days 1 to 31 of culture, n = 5, x ± s): 58.2 ± 2.2 g/L

cell browning [4]: cell browning phenomenon was obvious
SMILES: CC/C=C\CC1C(=O)CCC1CC(=O)OC (stereo not shown) [methyl jasmonate, Methyl jasmonate]
content of isoflavone, of that of the control of the same period [3]: 417.18%
content of puerarin in the cell culture (pueraria suspended cells): increased
increase of the content of paclitaxel [5]: 10 times
total content of mogroside V ([2]; inducer added alone, compared with the normal culture group, result in words): decreased compared with the normal culture group
amount of synthesis of mogroside V per unit time ([2]; suspended cells in the logarithmic growing period treated with methyl jasmonate alone): increased

SMILES: N[C@@H](Cc1ccccc1)C(=O)O [phenylalanine]
increase of the total amount of mogroside V compared with the control group [6]: 260.38%
